The subject of one experiment is A549 (lung cancer) cells. The experiment in a line: SRB growth inhibition, A549. The class given is cell-based, human. The settings on record: 96 hr, SRB assay; read-out: short-term 96 hr IC50 A549. Here is the method:
(§1) Human cancer cell lines and the somatic human cell line WI-38 (lung fibroblast) were purchased from the American Type Culture Collection. Cell lines were maintained in appropriate medium supplemented with 10% foetal bovine serum (Invitrogen, UK), 2 mM L-glutamine (Invitrogen, Netherlands), and other components as specified by the suppliers. Cell lines were maintained at 37° C., 5% CO2 and routinely passaged. Drugs were dissolved in DMSO and filtered through 0.22 μm pore-size filter units before addition to cell line appropriate media. Cellular growth inhibition was measured using the sulforhodamine B (SRB) assay in 96 well plates. Fifty percent inhibitory concentrations (IC50) were determined by taking the mean absorbance at 540 nm for each drug concentration expressed as a percentage of the absorbance of untreated control wells.
On the technique in general: The SRB assay estimates cell density from bound dye.

For experiment [1], the system named is subcutaneous xenograft of the pancreatic tumour cell line MiaPaCa-2. In words: Antitumour activity in MiaPaCa-2 subcutaneous xenograft. The class given is in vivo, CD1 nude mice. Conditions: 15 mg/kg IV twice weekly, FIG. 1. The text has this:
Study the therapeutic effect of compound 4c (MM41-tri) in comparison to MM41 and Gemcitabine in CD1 nude mice carrying a subcutaneous xenograft of the pancreatic tumour cell line MiaPaCa-2 (5×10^6 cells in the right flank) grown with Matrigel.
• 1 Inoculate SC 5×10^6 Miapaca-2 cells in the right flank (unsupplemented RPMI+Matrigel). • 2 Wait for tumours to establish subcutaneously (approx. 11 days). • 3 Measure size of the tumours weekly until they reach a mean size of 0.1 cm^3. At this stage of the development of the tumours, mice are ready to begin the therapy study. • 4 Re group mice to form 5 therapeutic groups constituted of 8 mice each, carrying approximately 0.1 cm^3 average of the tumour size per group. • 5 Administered corresponding dose of MM41 or compound 4c or Gemcitabine by IV. • Group 1: 8 mice treated with 15 mg/Kg of Gemcitabine twice weekly dose. • Group 2: 8 mice treated with 15 mg/Kg of MM41 (tetrasubstituted ND compound) twice weekly dose. • Group 3: 8 mice treated with 15 mg/Kg of Compound 4c twice weekly dose. • Group 4: 8 mice treated with 10 mg/Kg of Compound 4c twice weekly dose. • Group 5: 8 control mice treated with saline only twice weekly.

Another experiment relates to MCF7 (breast) cells. The experiment in a line: SRB growth inhibition, MCF7. The class given is cell-based, human. The settings on record: 96 hr, SRB assay; read-out: short-term 96 hr IC50 MCF7. Here is the method:
as §1

Experiment [2] concerns Hsp90A sequence from the HSP90 promoter. In words: FRET quadruplex stabilisation assay, Hsp90A. The class given is binding. Conditions: compound at 1 μM, 60 mM potassium cacodylate buffer pH 7.4. The text has this: (§2) The ability of the naphthalene diimide compounds to stabilize quadruplex DNA sequences was investigated using a fluorescence resonance energy transfer (FRET) assay modified to be used as a high-throughput screen in a 96-well format. Several quadruplex sequences were studied (including the human telomeric G-quadruplex DNA sequence 5′-FAM-d(GGG[TTAGGG]3)-TAMRA-3′ and the duplex sequence 5′-FAM-d[…]-HEG-[…]-TAMRA-3′ (HEG linker: [(—CH2—CH2—O—)6.
(§3) The labelled oligonucleotides have attached to them the donor fluorophore FAM: 6-carboxyfluorescein and the acceptor fluorophore TAMRA: 6-carboxytetramethylrhodamine. The FRET probe sequences were diluted from stock to the correct concentration (400 nM) in a 60 mM potassium cacodylate buffer (pH 7.4) and then annealed by heating to 85° C. for 10 min, followed by cooling to room temperature in the heating block. The compound was stored as a 10 mM stock solution in DMSO; final solutions (at 2× concentration) were prepared using 10 mM HCl in the initial 1:10 dilution, after which 60 mM potassium cacodylate buffer (pH 7.4) was used in all subsequent steps. The maximum HCl concentration in the reaction volume (at a ligand concentration of 20 μM) is thus 200 μM, well within the range of the buffer used. Relevant controls were also performed to check for interference with the assay. 96-Well plates (MJ Research, Waltham, Mass.) were prepared by aliquoting 50 μl of the annealed DNA into each well, followed by 50 μl of the compound solutions. Measurements were made on a DNA Engine Opticon (MJ Research) with excitation at 450-495 nm and detection at 515-545 nm. Fluorescence readings were taken at intervals of 0.5° C. in the range 30-100° C., with a constant temperature being maintained for 30 s prior to each reading to ensure a stable value. Final analysis of the data was carried out using a script written in the program Origin 7.0 (OriginLab Corp., Northampton, Mass.). The advanced curve-fitting function in Origin 7.0 was used for calculation of ΔTm values. All determinations were performed in triplicate or better. Esds in ΔTm are ±0.1° C.

The test system of experiment [3] is Kras32 sequence from the promoter region of the kras gene. The experiment in a line: FRET quadruplex stabilisation assay, Kras32. Conditions: compound at 1 μM, 60 mM potassium cacodylate buffer pH 7.4. The class given is binding.
Text: as §2, §3

Experiment [4] relates to WI38 (lung fibroblast) cells. In words: SRB growth inhibition, WI38. The class given is cell-based, human. The settings on record: 96 hr, SRB assay; read-out: short-term 96 hr IC50 WI38. How it is done: as §1
For experiment [5], the system named is ALT (Alternative Lengthening of Telomeres) cell line. The experiment in a line: SRB growth inhibition, ALT. The class given is cell-based, human. Conditions: 96 hr, SRB assay; read-out: short-term 96 hr IC50 ALT. Here is the method: as §1
Experiment [6] relates to Panc1 (pancreatic cancer) cells. The experiment in a line: SRB growth inhibition, Panc1. The class given is cell-based, human. Conditions: 96 hr, SRB assay; read-out: short-term 96 hr IC50 Panc1. Here is the method: as §1
Experiment [7] concerns Hsp90B sequence from the HSP90 promoter. The experiment in a line: FRET quadruplex stabilisation assay, Hsp90B. The class given is binding. The settings on record: compound at 1 μM, 60 mM potassium cacodylate buffer pH 7.4.
Text: as §2, §3

Experiment [8] relates to Tloop (representing duplex DNA). The experiment in a line: FRET assay, Tloop duplex DNA. The class given is binding. Conditions: compound at 1 μM, 60 mM potassium cacodylate buffer pH 7.4.
Text: as §2, §3

For experiment [9], the system named is Mia-PaCa2 (pancreatic cancer) cells. In words: SRB growth inhibition, MiaPaCa2. The class given is cell-based, human. Conditions: 96 hr, SRB assay; read-out: short-term 96 hr IC50 MiaPaCa2. Here is the method: as §1
The subject of experiment [10] is Kras21 sequence from the promoter region of the kras gene. In words: FRET quadruplex stabilisation assay, Kras21. The class given is binding. The settings on record: compound at 1 μM, 60 mM potassium cacodylate buffer pH 7.4.
Text: as §2, §3

Results on one compound are retold here after patent US20190330197A1, “SUBSTITUTED NAPHTHALENE DIIMIDES AND THEIR USE” (UCL Business PLC, priority 2015, published 2019).

What is called IC50 is the concentration that gives 50% inhibition. For `O=C1c2ccc3c4c(c(NCCN5CCCC5)cc(c24)C(=O)N1CCCN1CCOCC1)C(=O)N(CCCN1CCOCC1)C3=O` [Compound 4c, 2,7-bis(3-morpholinopropyl)-4-((2-(pyrrolidin-1-yl)ethyl)amino)benzo[Imn][3,8]phenanthroline-1,3,6,8(2H,7H)-tetraone], the IC50 in the experiment with A549 (lung cancer) cells is 0.024 µM; in the experiment with MCF7 (breast) cells, 0.159 µM; in [4], 1.19 µM; in experiment [5] it was 0.093 µM; in experiment [6], 0.022 µM; in [9] it was 0.012 µM. For the same compound, in experiment [1], the “anti-tumour response (tumour growth curve)” value is given as “highly significant anti-tumour response”. The “ΔTm Hsp90A” value in [2] was determined as 15.7 °C. Further, in experiment [3], the “ΔTm Kras32” value is 9.6 °C. Further, the “ΔTm Hsp90B” value in experiment [7] came to 12.7 °C. Also, the “ΔTm Tloop” value in experiment [8] was 0.6 °C. For the same compound, in experiment [10], the “ΔTm Kras21” value was found to be 11.0 °C.
